Test results: ChEMBL document CHEMBL1201862, “PubChem BioAssay data set” (2004)
Calls of active or inactive are those of the source.

Assays:
HeLa = assay: viability loss in HeLa cells – cell-based, ATP luminescence, cherry-pick samples, cytotoxicity control, dose response (AID 687004); assay type: functional; conditions: Homo sapiens
[1] = target: T1, Calpain-2 catalytic subunit (Sus scrofa, UniProt P43367); assay: m-calpain protease blockers, concentration series – biochemical, fluorogenic peptide substrate, dose response (AID 1420); assay type: functional
T1 sequence (P43367 whole entry): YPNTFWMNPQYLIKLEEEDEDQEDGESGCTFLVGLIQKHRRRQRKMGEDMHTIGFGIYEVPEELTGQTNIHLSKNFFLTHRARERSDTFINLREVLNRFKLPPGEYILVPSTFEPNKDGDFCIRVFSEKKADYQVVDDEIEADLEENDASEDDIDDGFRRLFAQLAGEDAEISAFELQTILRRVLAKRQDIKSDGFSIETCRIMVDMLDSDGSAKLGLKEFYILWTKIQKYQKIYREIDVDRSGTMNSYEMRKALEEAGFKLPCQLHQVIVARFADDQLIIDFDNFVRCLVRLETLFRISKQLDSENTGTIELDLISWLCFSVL

Galanin receptor type 3 = Galanin receptor type 3 (Homo sapiens, UniProt O60755); assay: Fluorescence-based cell-based primary high throughput dose response assay to identify antagonists of the Galanin Receptor 3 (GalR3).; assay type: functional
Sequence of Galanin receptor type 3 (O60755 whole entry): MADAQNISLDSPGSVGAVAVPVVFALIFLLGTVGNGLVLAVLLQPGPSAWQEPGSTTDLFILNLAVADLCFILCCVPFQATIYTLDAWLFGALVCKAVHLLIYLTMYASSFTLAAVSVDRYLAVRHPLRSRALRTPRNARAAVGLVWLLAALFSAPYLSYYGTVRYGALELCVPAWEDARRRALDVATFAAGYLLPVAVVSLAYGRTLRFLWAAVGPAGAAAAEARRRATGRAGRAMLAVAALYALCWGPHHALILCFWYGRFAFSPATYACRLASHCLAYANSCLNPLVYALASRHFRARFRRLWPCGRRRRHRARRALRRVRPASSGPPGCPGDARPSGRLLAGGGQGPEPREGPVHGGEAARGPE

cells = assay type: functional, cell-based; conditions: HEK-CNG
[2] = target: T2, Probable nicotinate-nucleotide adenylyltransferase (Staphylococcus aureus (strain N315), UniProt P65502); assay type: functional, Staphylococcus aureus subsp. aureus N315; conditions: read-out: IC50_Mean;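 on IC50 Mean: confirmatory dose-response retesting of NadD inhibitor hits first found in an ultra-high-throughput screen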
T2 sequence (P65502 whole entry): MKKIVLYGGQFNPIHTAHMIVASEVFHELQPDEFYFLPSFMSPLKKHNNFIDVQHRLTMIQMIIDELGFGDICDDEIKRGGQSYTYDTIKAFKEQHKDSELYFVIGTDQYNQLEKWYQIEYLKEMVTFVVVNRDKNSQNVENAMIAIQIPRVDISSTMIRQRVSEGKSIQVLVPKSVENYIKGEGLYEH

[3] = Trypanosoma cruzi growth suppression in host cells – NIH3T3 host cells, beta-gal luminescence, confirmation (AID 2044); assay type: functional, cell-based;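 further: intracellular parasites grown in NIH/3T3 mouse fibroblasts as host cells; luminescent beta-galactosidase reporter signal from transgenic T. cruzi replicating inside host cells; inhibitors lower the luminescence signal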
[4] = target: T2, Probable nicotinate-nucleotide adenylyltransferase; assay type: functional, Staphylococcus aureus subsp. aureus N315
[5] = NIH3T3 cell viability loss – ATP luminescence, mouse fibroblasts, counter-screen, dose response (AID 2010); assay type: functional, cell-based;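 further: cells exposed to compound for about 90 hours before reading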
Protein RecA = target: T3, Protein RecA (Mycobacterium tuberculosis, UniProt P9WHJ3); assay: Fluorescence Cell-Free Homogeneous Dose Retest to Identify Inhibitors of RecA-Intein Splicing Activity. [Related pubchem assays (depositor defined):AID2097, AID2223, AID489010, AID492950]; assay type: functional
T3 sequence (P9WHJ3 whole entry): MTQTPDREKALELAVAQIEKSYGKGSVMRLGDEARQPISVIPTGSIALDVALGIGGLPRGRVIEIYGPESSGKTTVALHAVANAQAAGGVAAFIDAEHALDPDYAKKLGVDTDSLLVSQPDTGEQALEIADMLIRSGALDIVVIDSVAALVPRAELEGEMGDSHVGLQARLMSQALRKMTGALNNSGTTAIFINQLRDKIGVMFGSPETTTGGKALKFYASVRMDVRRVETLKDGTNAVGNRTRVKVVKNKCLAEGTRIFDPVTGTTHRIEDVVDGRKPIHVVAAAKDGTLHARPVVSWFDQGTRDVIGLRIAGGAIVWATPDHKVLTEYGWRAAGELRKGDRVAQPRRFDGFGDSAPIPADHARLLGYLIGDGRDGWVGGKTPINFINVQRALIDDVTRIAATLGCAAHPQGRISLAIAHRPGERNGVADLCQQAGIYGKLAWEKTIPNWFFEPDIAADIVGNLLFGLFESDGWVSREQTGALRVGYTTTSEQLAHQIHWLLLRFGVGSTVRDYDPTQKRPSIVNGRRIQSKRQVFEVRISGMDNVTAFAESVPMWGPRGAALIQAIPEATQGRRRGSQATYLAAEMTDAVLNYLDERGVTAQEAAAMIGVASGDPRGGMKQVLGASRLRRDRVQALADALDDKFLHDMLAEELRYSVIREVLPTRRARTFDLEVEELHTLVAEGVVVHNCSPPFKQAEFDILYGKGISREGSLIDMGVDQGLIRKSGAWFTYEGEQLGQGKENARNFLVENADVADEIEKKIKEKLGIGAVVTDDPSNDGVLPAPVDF

[6] = target: T4, Ubiquitin-conjugating enzyme E2 N (Homo sapiens, UniProt P61088); assay type: functional
T4 sequence (P61088 whole entry): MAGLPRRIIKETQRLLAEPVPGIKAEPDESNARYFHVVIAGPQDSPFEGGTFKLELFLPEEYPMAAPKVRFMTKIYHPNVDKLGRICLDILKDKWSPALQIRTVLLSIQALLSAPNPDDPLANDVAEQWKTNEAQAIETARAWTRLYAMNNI

[7] = target: T4, Ubiquitin-conjugating enzyme E2 N; assay type: functional; remark: listed apart in the source
Bcl-2-related protein A1 = target: T5, Bcl-2-related protein A1 (Mus musculus, UniProt Q07440); assay type: functional;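 further: confirmatory dose–response counterscreen on Bfl-1, used to check hits from a UBC13 polyubiquitin inhibitor campaign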
T5 sequence (Q07440 whole entry): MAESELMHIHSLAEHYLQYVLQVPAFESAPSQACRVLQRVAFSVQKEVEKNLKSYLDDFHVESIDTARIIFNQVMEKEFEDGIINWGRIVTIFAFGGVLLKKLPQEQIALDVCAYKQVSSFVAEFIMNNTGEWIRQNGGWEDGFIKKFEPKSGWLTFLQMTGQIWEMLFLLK

[8] = reduction of Shn3 3'UTR-driven luciferase in osteoblasts – cell-based, Clone20 osteoblasts, firefly luciferase, cherry-picked, dose response (AID 624132); assay type: functional;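 further: firefly luciferase luminescence from reporter carrying the Shn3 3'UTR in osteoblasts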
Beta Lactamase [9] = target: T6, Beta Lactamase (Pseudomonas aeruginosa, UniProt Q932Y6); assay: BLA reporter interference, concentration series – BLA reporter cells, FRET fluorescence, artefact control for TLR9-MyD88 binding inhibitor project, dose response (AID 588341); assay type: cell-based;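 further: cell based assay in CHO-K1 cells stably expressing beta-lactamase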
T6 sequence (Q932Y6 whole entry): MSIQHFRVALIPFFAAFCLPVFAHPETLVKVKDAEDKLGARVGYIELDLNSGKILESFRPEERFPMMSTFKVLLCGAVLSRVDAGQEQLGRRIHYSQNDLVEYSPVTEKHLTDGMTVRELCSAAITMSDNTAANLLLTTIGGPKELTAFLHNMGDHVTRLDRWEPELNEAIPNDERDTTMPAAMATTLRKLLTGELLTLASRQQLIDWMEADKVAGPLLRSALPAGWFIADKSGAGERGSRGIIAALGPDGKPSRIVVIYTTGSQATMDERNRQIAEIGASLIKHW

[10] = loss of viability in HepG2 cells – cell-based, CellTiter-Glo, cherry-picked, cytotoxicity control for Shn3 inhibitor project, dose response (AID 624134); assay type: functional
[11] = Luminescence Cell-Based Dose Retest to Confirm Inhibitors of Cancer Stem Cells. [Related pubchem assays (depositor defined):AID2717, AID2721]; assay type: functional; conditions: Homo sapiens
[12] = non-specific 3'UTR reporter inhibition in Clone20-Shn3RL – cell-based, Renilla luciferase, cherry-picked, counter-screen for Shn3 inhibitor project, dose response (AID 624133); assay type: functional
[13] = target: T7, Replicative DNA helicase DnaB (Mycobacterium tuberculosis, UniProt P9WMR3); assay: DnaB intein splicing inhibitors, dose response, biochemical, cell-free fluorescence (AID 449749); assay type: functional
T7 sequence (P9WMR3 whole entry): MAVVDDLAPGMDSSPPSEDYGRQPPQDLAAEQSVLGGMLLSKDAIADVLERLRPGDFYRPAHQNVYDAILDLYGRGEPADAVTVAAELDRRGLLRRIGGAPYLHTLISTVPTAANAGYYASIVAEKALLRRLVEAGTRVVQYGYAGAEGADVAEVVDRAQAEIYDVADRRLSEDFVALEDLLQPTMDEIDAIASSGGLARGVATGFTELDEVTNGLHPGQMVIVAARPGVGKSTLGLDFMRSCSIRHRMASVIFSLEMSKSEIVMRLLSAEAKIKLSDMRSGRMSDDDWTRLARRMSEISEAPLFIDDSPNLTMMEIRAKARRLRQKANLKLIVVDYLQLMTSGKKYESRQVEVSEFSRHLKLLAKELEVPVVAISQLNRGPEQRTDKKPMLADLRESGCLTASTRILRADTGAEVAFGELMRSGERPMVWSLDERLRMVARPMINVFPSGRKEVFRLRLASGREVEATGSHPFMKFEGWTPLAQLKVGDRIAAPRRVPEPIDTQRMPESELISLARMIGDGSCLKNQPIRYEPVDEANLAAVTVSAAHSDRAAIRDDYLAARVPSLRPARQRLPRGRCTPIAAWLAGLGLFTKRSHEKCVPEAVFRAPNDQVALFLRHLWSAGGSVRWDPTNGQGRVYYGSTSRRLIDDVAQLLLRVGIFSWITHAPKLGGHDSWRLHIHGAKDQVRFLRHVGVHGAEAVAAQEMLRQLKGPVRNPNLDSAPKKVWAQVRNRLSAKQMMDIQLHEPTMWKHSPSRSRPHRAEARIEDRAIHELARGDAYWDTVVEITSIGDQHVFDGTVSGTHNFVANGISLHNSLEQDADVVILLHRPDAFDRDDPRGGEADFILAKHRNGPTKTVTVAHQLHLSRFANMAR

CHO = CHO cell viability loss, potency – luminescence, cytotoxicity control for TLR9-MyD88 binding inhibitor project, dose response (AID 588339); assay type: functional, cell-based, hamster; conditions: Cricetulus griseus;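 further: CHO cells stably coexpressing TLR9 and MyD88 fusions from primary screen; compound exposure lasted 48 hours before viability readout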
[14] = target: ATP-binding cassette sub-family B member 6 (Homo sapiens, UniProt Q9NP58); assay: ABCB6 transporter inhibitors, porphyrin accumulation, dose response, flow cytometry, K562-ABCB6 cells, cherry pick 02 (AID 624487); assay type: functional; conditions: read-out: EC50_MICROM
Sequence of ATP-binding cassette sub-family B member 6 (Q9NP58 whole entry): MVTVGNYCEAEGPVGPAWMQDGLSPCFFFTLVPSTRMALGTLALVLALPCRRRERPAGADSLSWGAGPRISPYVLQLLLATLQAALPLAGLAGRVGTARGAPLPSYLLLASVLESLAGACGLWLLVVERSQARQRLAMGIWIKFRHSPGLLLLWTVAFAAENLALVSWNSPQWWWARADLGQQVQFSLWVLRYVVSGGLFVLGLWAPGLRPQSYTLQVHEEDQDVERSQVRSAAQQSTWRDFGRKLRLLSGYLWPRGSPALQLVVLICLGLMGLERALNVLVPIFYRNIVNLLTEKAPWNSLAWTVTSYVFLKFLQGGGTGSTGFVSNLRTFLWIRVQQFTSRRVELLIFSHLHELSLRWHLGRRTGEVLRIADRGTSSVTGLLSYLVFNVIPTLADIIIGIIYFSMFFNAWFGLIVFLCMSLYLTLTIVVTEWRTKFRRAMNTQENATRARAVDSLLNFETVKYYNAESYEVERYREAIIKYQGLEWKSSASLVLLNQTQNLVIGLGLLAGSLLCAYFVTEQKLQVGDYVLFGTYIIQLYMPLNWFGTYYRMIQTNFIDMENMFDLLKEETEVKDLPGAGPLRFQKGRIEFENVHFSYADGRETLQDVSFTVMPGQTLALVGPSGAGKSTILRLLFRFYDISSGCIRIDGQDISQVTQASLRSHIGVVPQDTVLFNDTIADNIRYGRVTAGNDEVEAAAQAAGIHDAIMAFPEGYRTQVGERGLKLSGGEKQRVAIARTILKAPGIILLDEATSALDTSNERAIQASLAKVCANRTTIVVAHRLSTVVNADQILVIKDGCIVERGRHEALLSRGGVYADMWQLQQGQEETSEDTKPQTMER

Albumin = Albumin (Bos taurus, UniProt P02769); assay: Counterscreen for inhibitors of T-cell receptor (TCR)-CD3 interaction: Fluorescence-based biochemical high throughput dose response assay to identify inhibitors of T-cell receptor (TCR)-CD3 interaction using a TAMRA-labeled BSA probe.; assay type: functional
Sequence of Albumin (P02769 whole entry): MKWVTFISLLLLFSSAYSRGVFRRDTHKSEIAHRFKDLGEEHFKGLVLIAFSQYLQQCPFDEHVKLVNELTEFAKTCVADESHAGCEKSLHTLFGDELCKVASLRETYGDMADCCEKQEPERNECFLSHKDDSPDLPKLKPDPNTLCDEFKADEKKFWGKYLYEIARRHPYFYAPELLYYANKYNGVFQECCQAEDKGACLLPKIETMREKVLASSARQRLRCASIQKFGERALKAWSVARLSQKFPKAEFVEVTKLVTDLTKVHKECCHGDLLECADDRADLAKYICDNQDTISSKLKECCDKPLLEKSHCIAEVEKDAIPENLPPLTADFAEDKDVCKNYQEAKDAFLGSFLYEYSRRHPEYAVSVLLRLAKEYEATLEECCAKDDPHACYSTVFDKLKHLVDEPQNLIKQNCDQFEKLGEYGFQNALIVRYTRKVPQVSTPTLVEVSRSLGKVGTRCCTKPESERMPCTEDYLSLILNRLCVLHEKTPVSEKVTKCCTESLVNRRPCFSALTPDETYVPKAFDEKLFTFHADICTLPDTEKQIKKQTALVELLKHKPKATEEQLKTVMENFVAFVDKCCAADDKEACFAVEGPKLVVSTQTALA

Beta-lactamase [15] = target: T8, Beta-lactamase (Pseudomonas aeruginosa, UniProt Q79MP6); assay: inhibition of IMP-1 beta-lactamase activity – biochemical, epi-absorbance, selectivity assay for VIM-2 inhibitor project, dose response (AID 1920)
T8 sequence (Q79MP6 whole entry): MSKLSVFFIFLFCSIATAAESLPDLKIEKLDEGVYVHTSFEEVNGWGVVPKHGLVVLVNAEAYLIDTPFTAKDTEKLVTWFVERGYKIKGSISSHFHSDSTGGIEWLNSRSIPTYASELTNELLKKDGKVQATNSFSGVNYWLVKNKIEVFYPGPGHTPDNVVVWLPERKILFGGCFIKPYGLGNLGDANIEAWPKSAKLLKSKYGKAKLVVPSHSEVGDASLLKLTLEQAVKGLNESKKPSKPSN

Beta-lactamase [16] = target: Beta-lactamase (Salmonella choleraesuis (strain SC-B67), UniProt Q5J463); assay: Epi-absorbance-based counterscreen for selective VIM-2 inhibitors: dose response biochemical high throughput screening assay to identify inhibitors of TEM-1 serine-beta-lactamase.
Sequence of Beta-lactamase (Salmonella choleraesuis (strain SC-B67), UniProt Q5J463) (Q5J463 whole entry): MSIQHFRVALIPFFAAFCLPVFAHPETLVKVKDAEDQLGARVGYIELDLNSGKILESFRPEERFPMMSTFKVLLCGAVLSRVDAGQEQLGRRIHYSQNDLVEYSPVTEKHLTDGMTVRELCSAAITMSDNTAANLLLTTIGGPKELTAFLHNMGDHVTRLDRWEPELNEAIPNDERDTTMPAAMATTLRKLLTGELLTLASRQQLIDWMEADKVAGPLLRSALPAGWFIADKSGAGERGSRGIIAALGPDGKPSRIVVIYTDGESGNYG

Beta Lactamase [17] = target: T6, Beta Lactamase; assay: VIM-2 CCF2 hydrolysis inhibition, assay artifact filter – biochemical, FRET readout, CCF2 substrate, artefact control for selective VIM-2 inhibitor project, dose response (AID 1926)
Beta-lactamase [18] = target: T8, Beta-lactamase; assay: […] counterscreen for selective VIM-2 inhibitors: dose response biochemical high throughput screening assay to identify inhibitors of IMP-1 metallo-beta-lactamase.
Beta Lactamase [19] = target: T6, Beta Lactamase; assay: concentration-dependent VIM-2 enzyme inhibition – biochemical, epi-absorbance readout, selective inhibitors, dose response (AID 1919)

SMILES: CC(C)c1ccccc1N=C(S)NN(Cc1ccccc1)c1ccccc1
- AC50 (HeLa): > 52 µM (inactive)
- IC50 [1]: < 0.4 µM (not active)

SMILES: CC(CC(=O)Nc1ccc(Cl)c(S(=O)(=O)N2CCOCC2)c1)c1ccccc1 (stereo unspecified)
- IC50 (Galanin receptor type 3): 1.21 µM (active)
- EC50 (cells): > 29.9 µM (inactive)

SMILES: COc1ccc(-c2cc(C(=O)Nc3cccc(S(=O)(=O)NCc4ccco4)c3)c3ccccc3n2)cc1OC
- IC50 [2]: 25.3 µM (active)
- EC50 [3]: 1.64 µM (active)
- IC50 [4]: 13.8 µM (active)
- EC50 [5]: > 60 µM (not active)

SMILES: CC(=O)Nc1ccc(NC(=O)c2nc(S(=O)(=O)Cc3cccc(C)c3)ncc2Cl)cc1
- EC50 (Protein RecA): 5.24 µM (active)
- IC50 [6]: 13 µM (active)
- IC50 [7]: > 20 µM (inactive)
- IC50 (Bcl-2-related protein A1): > 20 µM (inactive)
- AC50 [8]: 0.528 µM (active)
- IC50 (Beta Lactamase [9]): 9.43 µM (active)
- AC50 [10]: 66.6 µM (active)
- AC50 [11]: 2.47 µM (active)
- AC50 [12]: 6.53 µM (active)
- AC50 [13]: 7.54 µM (active)
- IC50 (CHO): 3.54 µM (active)
- EC50 [14]: 17.8 µM (active)

SMILES: CCc1ccc(NC(=O)NNC(=O)c2ccc3ccccc3c2O)cc1
- IC50 (Albumin): > 94.1 µM (inactive)

SMILES: O=C(C1=C(O)C(=O)N(Cc2cccnc2)C1c1ccccn1)c1ccc(F)cc1 (stereo unspecified)
- IC50 (Beta-lactamase [15]): > 59.6 µM (inactive)
- IC50 (Beta-lactamase [16]): > 59.6 µM (inactive)
- IC50 (Beta Lactamase [17]): 0.941 µM (active)
- IC50 (Beta-lactamase [18]): > 59.6 µM (inactive)
- IC50 (Beta Lactamase [19]): 2.42 µM (active)
